Where two headings read alike, the source gives them in different places.
Experiments:
A375 melanoma cells [1] = assay: cells; conditions: Homo sapiens, A-375, 72 h, read-out: IC50 (µM) ± S.D. A375
A549 lung cancer cells [2] = assay: cells; conditions: Homo sapiens, A549, 72 h, read-out: IC50 (µM) ± S.D. A549
[3] = test system: HCT-15 colon cancer cells; assay: cells; conditions: Homo sapiens, HCT-15, 72 h, read-out: IC50 (µM) ± S.D. HCT-15
[4] = test system: BxPC3 pancreatic cancer cells; assay: cells; conditions: Homo sapiens, BXPC-3, 72 h, read-out: IC50 (µM) ± S.D. BxPC3
[5] = test system: MCF-7 breast cancer cells; assay: cells; conditions: Homo sapiens, MCF7, 72 h, read-out: IC50 (µM) ± S.D. MCF-7
[6] = test system: A431 cervical carcinoma cells; assay: cells; conditions: Homo sapiens, A-431, 72 h, read-out: IC50 (µM) ± S.D. A431
[7] = test system: 2008 cells (cellular DNA fragmentation); conditions: 6 h
Procedure: About 4 × 10^4 2008 cells were seeded in 25 cm^2 flasks in growth medium (6 mL). After 24 h, cells were incubated for 3h with 2.5µM of tested compounds. Cells were washed twice with cold PBS, harvested, centrifuged, and DNA fragmentation was measured by the alkaline comet assay. Low melting point agarose, 300 μL (Trevigen Inc., Gaithersburg, MD, USA) was heated to 37 °C and combined with 2 × 10^5 cells per mL cell suspension. Each well of a 20-well CometSlide was filled with 30 μL of the cell/agarose suspension. The slides were placed in a 4 °C refrigerator in the dark for 15 min to solidify. Slides were then immersed in 50 mL of pre-chilled lysis solution containing Trizma base, Triton X-100, DMSO and left at 4 °C for 30 min to facilitate cell membrane and histone removal. After draining excess liquid, the slides were transferred to 50 mL of freshly prepared (same day) alkaline DNA unwinding solution, (200 mmol/L NaOH, 1 mmol/L EDTA, pH > 13) and incubated at room temperature in the dark for 20 min. After the unwinding step, electrophoresis was performed at 21 V for 30 min. Slides were then rinsed with distilled water and fixed 5 min in 70% ethanol. Slides were dried and stained 5 min at 4 °C with SYBR Green I (Trevigen, Inc.) diluted 1:10000 in 10 mmol/L Tris pH 7.5, 1 mmol/L EDTA, drained to remove excess staining solution and thoroughly dried at room temperature in the dark. Micrographs were taken with a Zeiss LSM-800 confocal microscope (Zeiss, Oberkochen, Germany).

human TrxR1 = human TrxR1 (Homo sapiens, UniProt Q16881); conditions: isolated human TrxR1
Chain of human TrxR1 (Q16881 151-649 limits assumed): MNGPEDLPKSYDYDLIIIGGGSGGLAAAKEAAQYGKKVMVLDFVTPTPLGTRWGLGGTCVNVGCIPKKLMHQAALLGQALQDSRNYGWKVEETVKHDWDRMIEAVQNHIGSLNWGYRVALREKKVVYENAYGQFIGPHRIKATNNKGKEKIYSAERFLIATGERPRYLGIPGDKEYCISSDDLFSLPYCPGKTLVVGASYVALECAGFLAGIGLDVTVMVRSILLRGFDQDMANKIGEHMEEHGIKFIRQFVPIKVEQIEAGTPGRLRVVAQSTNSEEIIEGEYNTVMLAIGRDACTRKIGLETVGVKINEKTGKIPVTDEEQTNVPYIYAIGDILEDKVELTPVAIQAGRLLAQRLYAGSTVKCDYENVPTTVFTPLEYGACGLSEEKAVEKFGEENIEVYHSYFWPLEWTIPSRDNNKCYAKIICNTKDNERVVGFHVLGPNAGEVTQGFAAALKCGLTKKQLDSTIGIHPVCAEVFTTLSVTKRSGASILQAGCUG

TrxR = conditions: 2008 cells, 18 h, 2.5 µM
Procedure: TrxR inhibition was also evaluated in 2008 cells treated for 18 h with equimolar concentrations (2.5 µM) of all phosphino silver(I) derivatives and of AgNO3.
The 2008 cells were incubated for 18 h with tested compounds. Subsequently, cells were washed twice with Phosphate Buffer Solution (PBS) and lysed. TrxR activity was tested by measuring NADPH-dependent reduction of DTNB and glutathione peroxidase (GPx) activity was followed at 340 nm.

[8] = test system: HCT-15 colon cancer cells; conditions: for times more effective than cisplatin, HCT-15: HCT-15 cells, 72 h MTT, versus cisplatin
[9] = test system: MCF-7 breast cancer cells; conditions: read-out: IC50 (µM) ± S.D. MCF-7; 72 h, MTT test
[10] = test system: 2008 ovarian cancer cells; conditions: read-out: IC50 (µM) ± D.S. 2008; 72 h, MTT test, cisplatin-sensitive cells
A375 melanoma cells [11] = conditions: read-out: IC50 (µM) ± S.D. A375; 72 h, MTT test
[12] = test system: human cancer cell line panel; conditions: read-out: average IC50; average over the six cancer cell lines, 72 h MTT
[13] = test system: BxPC3 pancreatic cancer cells; conditions: read-out: IC50 (µM) ± S.D. BxPC3; 72 h, MTT test
[14] = test system: C13* cisplatin-resistant ovarian cancer cells
A549 lung cancer cells [15] = conditions: read-out: IC50 (µM) ± S.D. A549; 72 h, MTT test
[16] = test system: A431 cervical carcinoma cells; conditions: read-out: IC50 (µM) ± S.D. A431; 72 h, MTT test
2008 cells [17] = conditions: 24 h or 48 h
Procedure: The 2008 cells (2 × 10^5) were seeded in a six-well plate in growth medium (4 mL). After 24 h, cells were incubated for 24 h with increasing concentrations of tested compounds. Subsequently, the thiol content was measured as previously described [43].
(A) Sulfhydryl content in 2008-treated cancer cells incubated for 24 h or 48 h with tested silver(I) compounds. The sulfhydryl group amount was determined by the DTNB assay.

2008 cells [18] = conditions: IC50 concentrations, 24 or 48 h
Procedure: In particular, 2008 cells were treated for 24 or 48 h with IC50 concentrations of tested Ag(I) complexes, and the percentage of cells with hypopolarized mitochondrial membrane potential was determined fluorimetrically by means of the Mito-ID® Membrane Potential Kit.
The ΔΨ was assayed using the Mito-ID® Membrane Potential Kit according to the manufacturer’s instructions (Enzo Life Sciences, Farmingdale, NY). Briefly, 2008 cells (8 × 10^3 per well) were seeded in 96-well plates; after 24 h, cells were washed with PBS and loaded with Mito-ID Detection Reagent for 30 min at 37 °C in the dark. Afterwards, cells were incubated with increasing concentrations of tested complexes. Fluorescence intensity was estimated using a plate reader (Fluoroskan Ascent FL, Labsystems, Finland) at 490 (excitation) and 590 nm (emission). Carbonyl cyanide m-chlorophenyl hydrazone (CCCP, 4 μM), a chemical inhibitor of the oxidative phosphorylation, was used as positive control.
2008 cells were treated for 24 h or 48 h with IC50 concentrations of tested complexes or CCCP (3 μM). The percentage of cells with hypopolarized mitochondrial membrane potential was determined by Mito-ID® Membrane Potential Kit. Data are the means of three independent experiments. Error bars indicate S.D.

caspase-3 = conditions: 2008 cells, IC50, 24 or 48 h
Procedure: (§1) The 2008 cells (1 × 10^6) were treated for 24 h with the IC50 doses of tested compounds, harvested and homogenized in a lysis buffer [1% Triton X-100, 320 nM sucrose, 5 mM EDTA, 10 mM Tris–HCl and 2 mM DTT (1,4-dithio-DL-threitol) buffer (pH 7.6)]. Protein aliquots (100 μg) were stained at 37 °C for 60 min with fluorescent caspase-3 (N-Acetyl-Asp-Glu-Val-Asp-AMC, AMC = 7-amino-4-methylcoumarin) or caspase-9 (Ac-Leu-Glu-His-Asp-AMC) substrate (Sigma Co.). Substrate hydrolysis was measured after 60 min by monitoring the release of AMC using a spectrofluorometer (excitation at 370 nm, emission at 460 nm).
(§2) Effect of silver(I) compounds on caspase-3 and -9 activation. […] Data are the means of at least three independent experiments. Error bars indicate SD.

caspase-9 = conditions: 2008 cells, IC50 concentration, 24 h
Chain of caspase-9 (P55211 whole entry): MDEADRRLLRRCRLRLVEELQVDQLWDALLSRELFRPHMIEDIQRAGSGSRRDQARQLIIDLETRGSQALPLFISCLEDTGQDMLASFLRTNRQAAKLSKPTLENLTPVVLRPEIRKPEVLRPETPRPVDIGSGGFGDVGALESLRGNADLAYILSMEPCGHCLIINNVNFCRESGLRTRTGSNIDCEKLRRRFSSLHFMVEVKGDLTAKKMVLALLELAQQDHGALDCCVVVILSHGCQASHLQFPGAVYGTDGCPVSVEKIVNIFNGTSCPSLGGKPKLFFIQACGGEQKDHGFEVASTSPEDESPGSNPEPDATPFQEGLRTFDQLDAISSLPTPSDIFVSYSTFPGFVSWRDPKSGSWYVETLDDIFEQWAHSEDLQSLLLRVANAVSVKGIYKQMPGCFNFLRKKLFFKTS
Procedure: as §1, §2

2008 cells [19] = conditions: 48 h, IC50 concentrations
Procedure: About 10^6 2008 cells were seeded in 24-well plates and, after 24 h incubation, were treated with the tested compounds and incubated for additional 24 h. Cells were then washed with cold PBS, harvested and directly fixed with 1.5% glutaraldehyde buffer with 0.2 M sodium cacodylate, pH 7.4. After washing with buffer and postfixation with 1% OsO4 in 0.2 M cacodylate buffer, specimens were dehydrated and embedded in epoxy resin (Epon Araldite). Sagittal serial sections (1 μm) were counterstained with toluidine blue; thin sections (90 nm) were given contrast by staining with uranyl acetate and lead citrate. Micrographs were taken with a Hitachi H-600 electron microscope (Hitachi, Tokyo, Japan) operating at 75 kV.

2008 cells [20] = conditions: IC50 of compounds
Procedure: The production of ROS was measured in 2008 cells (10^4 per well) grown for 24 h in a 96-well plate in RPMI medium without phenol red (Sigma Chemical Co.). Cells were then washed with PBS and loaded with 10 μM 5-(and-6)-chloromethyl-2′,7′-dichlorodihydrofluorescein diacetate acetyl ester (CM–H2DCFDA) (Molecular Probes-Invitrogen, Eugene, OR) for 25 min, in the dark. Afterwards, cells were washed with PBS and incubated with increasing concentrations of tested compounds. Fluorescence increase was estimated utilizing the wavelengths of 485 nm (excitation) and 527 nm (emission) in a Fluoroskan Ascent FL (Labsystems, Finland) plate reader.
Error bars indicate S.D. (B) effect of silver(I) compounds on hydrogen peroxide formation in 2008 cells. 2008 cells were pre-incubated in PBS/10 mM glucose medium for 20 min at 37 °C in presence of 10 µM CM-DCFDA and then treated with IC50 of silver(I) compounds.

Procedure for CT-DNA: From the observed spectra, KSV was calculated according to the classical Stern–Volmer equation (Figure S16B).
The UV–Vis absorption spectroscopic studies and the DNA binding experiments were performed at
Experiments were performed by maintaining a fixed CT-DNA concentration (30
Sample solutions were scanned in the range
200−500 nm on a computer-controlled Varian Coulter DU 800 spectrophotometer.
EB–DNA competition experiments
The ethidium bromide (EB) displacement experiments were performed by titration with aliquots of
tested compounds of a Tris buffer solution containing 10 μM DNA (8.0–15 kbp) and 0.33 μM EB
(saturated binding levels). The fluorescence spectrum of the solution was obtained by exciting at 520
nm and measuring the emission spectra at 587 nm.
determined from the slope of the diagram F0/F versus r.

Compound	IC50 (A375 melanoma cells [1]) [µM]	IC50 (A549 lung cancer cells [2]) [µM]	IC50 [3] [µM]	IC50 [4] [µM]	IC50 [5] [µM]	IC50 [6] [µM]	reduction of total cellular TrxR activity (TrxR)	times more effective than cisplatin, HCT-15 [8]	other results
CC(=O)N1CN2CN(C(C)=O)CP(C2)C1 [DAPTA, 3,7-diacetyl-1,3,7-triaza-5-phosphabicyclo [3.3.1]nonane]	> 100	> 100	67.1 ± 3.1	89.5 ± 4.1	85.3 ± 4	> 100	–	–	–
N#CCCP(CCC#N)CCC#N [PCN, tris(cyanoethyl)phosphine]	> 100	> 100	> 100	> 100	> 100	> 100	–	–	–
c1ccc(P(c2ccccc2)c2ccccc2)cc1 [PPh3, triphenylphosphine]	52.3 ± 2.5	30.1 ± 2.1	54.1 ± 4.2	62.2 ± 2.2	34.2 ± 3.4	47.5 ± 1.1	–	–	DNA damage in comet assay, in words [7]: scarcely effective in increasing comet tail lengths
C1N2CN3CN1CP(C2)C3 [PTA, 1,3,5-triaza-7-phosphaadamantane]	> 100	> 100	> 100	> 100	> 100	> 100	–	–	–
O=S1(=O)N2CN3CN1CP(C3)C2 [PTA-SO2]	> 100	> 100	> 100	> 100	69.5 ± 3.4	56 ± 3.5	–	–	–
AgNO3	–	–	–	–	–	–	12%	–	TrxR1 inhibition, in words (human TrxR1): effective in inhibiting the redox enzyme activity at nanomolar level
Cisplatin	–	–	–	–	–	–	–	–	IC50 ([8]; read-out: IC50 (µM) ± S.D. HCT-15, 72 h, MTT test): 15.5 ± 2.5 µM; IC50 [9]: 7.6 ± 3 µM; IC50 [10]: 2.3 ± 1.1 µM; IC50 (A375 melanoma cells [11]): 4 ± 1 µM; IC50 [12]: 7.9 µM; IC50 [13]: 10.2 ± 1.7 µM; RF ([14]; RF = IC50 resistant/IC50 parental cell lines (C13*/2008)): 9.5; IC50 ([14]; read-out: IC50 (µM) ± D.S. C13*, 72 h, MTT test, cisplatin-resistant cells): 21.5 ± 3 µM; IC50 (A549 lung cancer cells [15]): 8.4 ± 0.9 µM; IC50 [16]: 2.1 ± 0.4 µM
[Ag(PCN)2]BF4 [Compound 9]	–	–	–	–	–	–	about 70%	roughly 4.4 fold	–
[Ag(PPh3)4]BF4 [Compound 10]	–	–	–	–	–	–	about 75%	roughly 4.4 fold	DNA damage in comet assay, in words [7]: barely effective in provoking DNA damage; cellular sulfhydryl content (2008 cells [17]): lowest levels of cellular sulfhydryl groups; cells with hypopolarized mitochondrial membrane potential (2008 cells [18]): increase in the percentage of hypopolarized cells similar to that induced by reference compound carbonyl cyanide-m-chlorophenylhydrazone (CCCP); caspase-3 activation (caspase-3): time-dependent activation of caspase-3; enhancement in caspase-9 activity compared to control cells (caspase-9): 2.6 fold; modification of DNA absorption bands (CT-DNA): no significant modifications in DNA properties; mitochondrial morphology by TEM (2008 cells [19]): mitochondria with disrupted cristae and a significant increase in volume (swelling); basal ROS / hydrogen peroxide production (2008 cells [20]): increase in basal hydrogen peroxide formation rather similar to that obtained with antimycin
[HB(pz)3]Ag(PPh3) [Compound 5]	–	–	–	–	–	–	about 75%	about 7 fold	increase of well-formed comets ([7]; IC50 dose): about 69%; cellular sulfhydryl content (2008 cells [17]): lowest levels of cellular sulfhydryl groups; cells with hypopolarized mitochondrial membrane potential (2008 cells [18]): increase in the percentage of hypopolarized cells similar to that induced by reference compound carbonyl cyanide-m-chlorophenylhydrazone (CCCP); caspase-3 activation (caspase-3): time-dependent activation of caspase-3; enhancement in caspase-9 activity compared to control cells (caspase-9): 3.3 fold; modification of DNA absorption bands (CT-DNA): slight hyperchromic effect at 263 nm; mitochondrial morphology by TEM (2008 cells [19]): mitochondria with disrupted cristae and a significant increase in volume (swelling); basal ROS / hydrogen peroxide production (2008 cells [20]): increase in basal hydrogen peroxide formation rather similar to that obtained with antimycin

— paper PMC7700221, “Antiproliferative Homoleptic and Heteroleptic Phosphino Silver(I) Complexes: Effect of Ligand Combination on Their Biological Mechanism of Action” (Molecules, 2020)
